Data reported in patent US4235916A, “2-Methylthio-6-fluoro-9-(1-methyl-4-piperidylidene)-thioxanthene and salts thereof, neuroleptic compositions and method of use” (Kefalas A/S, priority 1977, dated 1980).
Read-outs that look alike come from different tables or passages of the source.

How the values were obtained:
[1] = Catalepsy wire mesh, rat, max.; type: in vivo, male; details: rats; for Ratio Catalep./Amphetam. antag.: catalepsy ED50 (s.c.) / amphetamine antagonism ED50 (i.p.); for ED50: rat, in vivo, sc, wire mesh, maximum effect within first 6 hours
Procedure: Catalepsy wire mesh, rat, max. (ED50 mg/kg s.c.)
A vertical wire netting (50 cm×49 cm). The meshes (openings) of the netting are square (1 cm×1 cm). The wire diameter is 2 mm.
The animals are labeled and used in groups of five. The test substance is injected subcutaneously (s.c.) (5 ml/kg) at 4 dose levels selected from the fixed dose scale.
The animals are placed in the middle of the vertical wire netting 60, 120, 180, 240, 300 and 360 minutes after injection of the test compound. The animals are considered cetaleptic when they remain immobile during a period of 15 seconds. This cataleptic reaction is designated +. If the rats are "atonic" and passively slides down the wire mesh they are considered not cataleptic. If the animals climb up and down the wire mesh they are nor cataleptic. In both situations the designation - is used.

[2] = Determination of LD50 (acute toxicity, i.p.); type: in vivo, Mice, male; details: for LD50 at 24 h: mouse, in vivo, ip, mice, i.p., deaths after 24 hours
Procedure: Determination of LD50 (mg/kg i.p.)
Mice, male, weighing from 18-25 g, fasted from 4 p.m. the day before test day.
Four treated groups and one control group, each of 4 mice, are used.
The test substance is suspended in methyl cellulose 0.5% and injected intraperitoneally. The animals are placed in Macrolon cages type II. […] Furthermore the results are recorded according to the punching instructions as fractions: 0/4, 1/4, 2/4, 3/4 and 4/4 where 0, 1, 2, 3 and 4 indicate the number of deaths after the dose in question.

methylphenidate = experiment: Methylphenidate antagonism; type: in vivo, male; details: Mus musculus, ip, mice, i.p.
Procedure: Methylphenidate antagonism (ED50 mg/kg i.p.)
Perspex observation cages without bottom and lid, consisting of 5 sections each measuring 12×25×30 cm. White corrugated paper. Mice, male, 18-25 g.
3×2 mice are used for each dose level. Two or 24 hours after injection of test substance, methylphenidate, 60 mg/kg, is injected s.c.
After administration of methylphenidate the mice are placed in the observation cages, 2 in each cage, where they remain for exactly 1 hour. The cages are placed on corrugated paper, the corrugations facing upwards. It is examined whether the mice have been biting the corrugated paper or not. […] If one or more of the control pairs have not been biting, the test has to be repeated on a new set of mice.
The result is stated in fractions: 0/3, 1/3, 2/3 and 3/3 where 0, 1, 2 and 3 are the number of pairs which have not been biting on receipt of the dose in question.

amphetamine = experiment: Amphetamine antagonism; type: in vivo, Rats, male; details: for ED50: Rattus norvegicus, ip, 2 h, rats, i.p., amphetamine sulphate 13.6 mg/kg i.v. two hours later, read-out: Amphetamine antag. (ED50)
Procedure: Amphetamine antagonism (ED50 mg/kg i.p.)
Perspex observation cages without bottom and lid, consisting of 5 sections each measuring 12×25×30 cm.
The test substance is given i.p. in a reasonable dose based on the determined LD50. Two hours later an intravenous injection of amphetamine sulphate 13.6 mg/kg (~10 mg/kg amphetamine base) is given, after which the rats are placed individually in the cages. The cages are placed on white corrugated paper. Five rats are used for each dose level. Observations are made after 55 minutes and 65 minutes--observation time: 1 minute. The animals are observed for stereotypy (movements of the head, compulsive gnawing). […] If the compound has full antagonistic effect another group of rats is used at a lower dose. […] The result is stated as fractions: 0/5, 1/5, 2/5, 3/5, 4/5 and 5/5, where 0, 1, 2, 3, 4 and 5 indicate the number of rats which have not shown stereotypy at the dose in question. The results are calculated as ED50 in mg/kg.

physostigmine = experiment: Physostigmine antagonism; type: in vivo, male; details: Mus musculus, ip, 0.5 h; mice, i.p., physostigmine 2 mg/kg i.p. thirty minutes after test substance; survivors after 60 minutes; read-out: Physostigmine antag. (ED50)
Procedure: Physostigmine antagonism (ED50 mg/kg i.p.)
Scopolamine bromide 0.04 mg/ml or 0.1 mg/ml.
Physostigmine salicylate 0.2 mg/ml.
Five mice are used for each dose level. One group, serving as positive control, is injected with scopolamine 0.4 mg/kg i.p. Thirty minutes after i.p. administration of test substance (or scopolamine), physostigmine 2 mg/kg, is injected i.p. This dose of physostigmine induces tremor with salivation, clonic convulsions, coma and death. After 60 minutes the number of survivors are counted.
The results are recorded in fractions: 0/5, 1/5, 2/5, 3/5, 4/5 and 5/5 where 0, 1, 2, 3, 4 and 5 inducate the number of animals in which the test compound has prevented the occurrence of death.

Muscarinic = Muscarinic affinity binding (3H-PrBCM, whole brain P2 fraction); parameters: species or system Rats; details: displacement of specific 3H-PrBCM binding by 50%; rat brain, pH 7.4, 30° C.; read-out: Muscarine affinity (IC50)
Procedure: Muscarinic affinity binding
Sodium thiosulphate 10 mM (2.48 g/1000 ml) ^3 H-PrBCM (N-2'-chloroethyl-N-[2", 3"-^3 H2 ] propyl-2-aminoethylbenzilate,spec. act. ~28 Ci/mM).
A rat is killed by a blow on the head and exsanguinated. The whole brain is removed and homogenized in 10 volumes of ice cold 0.32 M sucrose with a hand homogenizer. The homogenate is centrifuged at 600 g for 10 minutes (4° C.) and the pellet discarded. The supernatant is then centrifuged at 25000 g for 55 minutes (4° C.). The pellet fraction (P2) is resuspended in the same volume of 0.32 M sucrose as previously used and stored on ice.
The aziridinium ion of ^3 H-propylbenzilyllcholine mustard (^3 H-PrBCM) is prepared by cyclization at a concentration of 130 nM in 15 mM Na-phosphate buffer (pH 7.4) for 50 minutes at 20° C. The reaction is terminated by addition of 100 volumes of ice cold buffer.
The incubation is continued for 15 minutes and stopped by addition of 20 ml 100 mM phosphate buffer containing 10 mM sodium thiosulphate. The samples are filtered through Whatman GF/C glass fiber filters and washed with 30 ml ice cold 100 mM phosphate buffer. The filters with synaptosomes are transferred to scintillation vials and the radio-activity measured by liquid scintillation counting after addition of 10 ml Instal-Gel (Packard Inst.). All experiments are performed in triplicate.
Specific ^3 H-PrBCM binding is defined as the total binding minus the binding in the presence of 20 μM atropine.

apomorphine = experiment: Apomorphine vomit; type: in vivo, Adult Beagle dogs; details: Canis lupus familiaris, sc, 4 h; Beagle dogs, s.c., four hours before apomorphine 25 μg/kg i.v.; calculated ED50 approximate; read-out: Apomorph. Vomit (ED50)
Procedure: Adult Beagle dogs of either sex, housed individually in kennels or in cages.
2-4 dogs are used per dose level.
The test compound is injected subcutanelusly in the back of the neck four hours before apomorphine, which is given intravenously in a dose of 25 μg/kg (volume 0.1 ml/kg).
The results are given as fractions, i.e. 0/2, 1/2 or 2/2, stating the number of dogs protected against vomiting over to the number of dogs. On account of the small number of animals the calculated ED50 should be considered approximate.

[3] = methylphenidate 60 mg/kg s.c. 2 h after test substance, read-out: Methylphenidate antag. 2h (ED50)
[4] = methylphenidate 60 mg/kg s.c. 24 h after test substance, read-out: Methylphenidate antag. 24h (ED50)

Row | Compound | Ratio Catalep./Amphetam. antag. [1] | ED50 [1] [mg/kg] | LD50 at 24 h [2] [mg/kg] | ED50 (methylphenidate; [3]) [mg/kg] | ED50 (amphetamine) [mg/kg] | ED50 (physostigmine) [mg/kg] | IC50 (Muscarinic) [nM] | ED50 (methylphenidate; [4]) [mg/kg] | ED50 (apomorphine) [mg/kg] | acute toxicity, in words ([2]; compared with Lu 14-089 or related thioxanthene derivatives) | neuroleptic activity as expressed by the amphetamine antagonism, in words (amphetamine; compared with Lu 14-089)
1 | CN1CCC(=C2c3ccc(F)cc3Sc3ccc(Cl)cc32)CC1 [Lu 12-304, 2-Chloro-6-fluoro-9-(1-methyl-4-piperidylidene)-thioxanthene] | 0.62 | 3.4 | 187 | 4.6 | 5.5 | 8.9 | – | – | – | – | –
2 | CN1CCC(=C2c3ccc(F)cc3Sc3ccc(C(F)(F)F)cc32)CC1 [Lu 12-312, 2-Trifluoromethyl-6-fluoro-9-(1-methyl-4-piperidylidene)-thioxanthene] | 0.12 | 0.067 | 188 | 0.07 | 0.56 | 7.7 | 18 | 2.1 | 0.04 | – | –
3 | CN1CCC(=C2c3ccccc3Sc3ccc(C(F)(F)F)cc32)CC1 [Lu 13-003, 2-Trifluoromethyl-9-(1-methyl-4-piperidylidene)-thioxanthene] | 3.5 | 1.3 | 187 | 0.15 | 0.37 | 4.6 | 8 | – | – | – | –
4 | CN1CCC(=C2c3ccccc3Sc3ccc(Cl)cc32)CC1 [Lu 13-016, 2-Chloro-9-(1-methyl-4-piperidylidene)-thioxanthene] | 6.5 | 25 | 226 | 1 | 3.9 | 4.4 | 14 | > 20 | – | higher acute toxicity | much lower neuroleptic activity
5 | CSc1ccc2c(c1)C(=C1CCN(C)CC1)c1ccccc1S2 [Lu 14-145, 2-Methylthio-9-(1-methyl-4-piperidylidene)-thioxanthene] | – | > 20 | 188 | 1.4 | > 20 | 4.9 | 13 | 14 | – | – | –
6 | CN(C)CCCN1c2ccccc2Sc2ccc(Cl)cc21 [chlorpromazine] | – | 5.6 | 226 | 4 | 7.1 | > 40 | – | 20 | 0.36 | – | –
7 | CN(C)CC/C=C1/c2ccccc2Sc2ccc(Cl)cc21 [chlorprothixene] | – | 4 | 226 | 0.71 | 6.1 | 86 | – | > 20 | 0.9 | – | –
8 | OCCN1CCN(CCC=C2c3ccccc3Sc3ccc(Cl)cc32)CC1 [clopenthixol] | – | 0.95 | 226 | 1.2 | 0.77 | > 20 | – | – | 0.04 | – | –
9 | CN1CCN(C2=Nc3cc(Cl)ccc3Nc3ccccc32)CC1 [clozapine] | – | 85 | > 320 | > 160 | > 40 | 24 | – | – | ~4 | – | –
10 | OCCN1CCN(CCC=C2c3ccccc3Sc3ccc(C(F)(F)F)cc32)CC1 [flupentixol] | 0.36 | 0.25 | 246 | 0.2 | 0.69 | > 40 | 4000 | > 20 | 0.02 | – | –
11 | OCCN1CCN(CCCN2c3ccccc3Sc3ccc(C(F)(F)F)cc32)CC1 [fluphenazine] | – | 0.099 | 259 | 0.04 | 0.08 | > 20 | – | 3.6 | 0.007 | – | –
12 | O=C(CCCN1CCC(O)(c2ccc(Cl)cc2)CC1)c1ccc(F)cc1 [haloperidol] | – | 0.21 | 226 | 0.06 | 0.14 | > 20 | – | – | 0.01 | – | –
